Data: patent US10058495B2, “Method of making a skin care product” (The Procter & Gamble Company, priority 2014, dated 2018)
Residues, ends and D or L forms follow the SMILES beside them. *: point of attachment. Palmitoyl = CCCCCCCCCCCCCCCC(=O)*

Columns and labels:
[1] = Ex vivo skin penetration study (Franz cell); format: in vitro ADME, human; conditions: arrays 1 (uni-directional, 27 mT) and 2 (bi-directional, overall 21 mT) of Table 1 versus other arrays tested; 400 μg/ml in 50:50 PG:PB at pH 4
Procedure: An ex vivo skin penetration study was conducted to compare the ability of different magnetic arrays to enhance penetration of Pal-KTTKS (SEQ ID NO: 1) into the epidermis of human skin. The dermis and epidermis of human skin samples obtained from donors aged 60-65 years were heat separated and the dermis discarded. 20 μL of a Pal-KTTKS (SEQ ID NO: 1) containing composition (400 μg/ml in 50:50 PG:PB at pH 4) was placed on human epidermis in Franz cell. Different magnetic arrays were positioned approximately 1.0 mm above the epidermis samples and moved over the samples at the speed a user might move a cosmetic applicator when applying a skin care product (e.g., about 20-25 cm/sec). Samples were taken and measured at 0, 1, 2, 4, 6, 8, 24 hours. […] For the bi-directional arrays herein, the “1st layer” refers to the layer closest to the skin-contacting surface of the applicator, and the “2nd layer” refers to the layer disposed on the side of the 1st layer opposite the side closest to the skin-contacting surface.

[2] = In vivo skin penetration study #2 (Tape Stripping method), magnetic vs non-magnetic applicator; set-up: species or system human; conditions: for amount of Pal-KTTKS recovered, Sum 2-10 / amount of Pal-KTTKS recovered, Sum 6-10: in ng (unit assumed)
Procedure: This method provides a suitable means of measuring the amount of skin care active present in skin, and comparing active versus passive application of the skin care active. Two identical rectangular areas of 15 cm^2 are marked on the volar forearms of volunteers. A measured dose (approximately 30 mg) of the Pal-KTTKS (SEQ ID NO: 1) formulation is applied to the delineated areas using a screw actuated syringe. Active application is carried out on one of the delineated areas using the three-quarter profile of a purpose made applicator (e.g., an applicator presenting one of the magnetic arrays set forth in Table 2). Passive application is accomplished on the other delineated area using the tip of a finger in a sweeping motion identical to that of the active application. The formulation is spread evenly across the entire delineated region using a sweeping motion with a fixed speed of approximately 23 cm/s to […]. The application period is 30 seconds during which time visual inspection is used to ensure even distribution and absorption of the formulation by skin. The application area is then left uncovered for a further 30 minutes to ensure complete absorption. Tape strip samples may be collected and/or analyzed immediately after the complete absorption is ensured or after a waiting period (e.g., after multiple applications of the formulation over multiple hours or days).
The tape stripping procedure is carried out using 10 commercial pre-cut 22.1 mm tape stripping adhesive discs (e.g., D-SQUAME, available from Cuderm Corporation or equivalent) with an adhesive area of 3.8 cm^2. The 10 tape strips are applied sequentially to the same sampling site, which ideally enables each tape strip to obtain a sample from deeper within the stratum corneum than the tape strip that preceded it. A 22.1 mm diameter circular region is marked at the center of the application area. A tape stripping adhesive disc is placed over the marked area and even pressure applied using, for example, a neoprene roller, rolled ten times over the adhesive disc. The adhesive disc is removed from the skin surface in a single pulling motion using manual tweezers. To ensure even removal of the skin sample, subsequent discs are removed in a “north, south, east and west” orientation, which is within the skill of the ordinary artisan. Each adhesive disc is non-destructively analysed for protein content using a suitable instrument (e.g., SquameScan™ 850 instrument commercially available from Heiland Electronics Wetzlar, Germany, or equivalent). The adhesive disc is then immediately placed into a glass vial containing extraction solvent in preparation for subsequent analysis. Solvent extractions are conducted on each tape strip using conventional extraction methods, which are well known to those of ordinary skill in the art, and measuring the amount of Pal-KTTKS (SEQ ID NO: 1) present in the extract, for example, by high performance liquid chromatography (“HPLC”) and/or mass spectrometry.
The procedure is repeated for the remaining nine strips. An additional strip is obtained from outside the area of application of the skin care formulation to serve as a blank sample. The amount of active is normalized to the amount of protein measured.
This in vivo skin penetration study compares the penetration of Pal-KTTKS (SEQ ID NO: 1) into skin when a Pal-KTTKS (SEQ ID NO: 1)-containing composition is applied with a magnetic applicator (active application) versus application with a non-magnetic applicator (passive application). In this example, 5 test subjects (A to E in Tables 13 and 14) were selected. 18 mg of a composition containing Pal-KTTKS (SEQ ID NO: 1) (Olay® Deep Wrinkle Treatment® brand skin cream available from the Procter & Gamble Company, Cincinnati, Ohio) was applied to two 3 cm×3 cm test sites on the inner forearms of each test subject using the applicator illustrated in FIG. 1C. The applicator used for active application included Array #8 from Table 2. […]

[3] = active, array #8, Avg of all test sites
[4] = active, array #8, subject A site 1
[5] = active, array #8, subject A site 2
[6] = active, array #8, subject B site 1
[7] = active, array #8, subject B site 2
[8] = active, array #8, subject C site 1
[9] = active, array #8, subject C site 2
[10] = active, array #8, subject D site 1
[11] = active, array #8, subject D site 2
[12] = active, array #8, subject E site 1
[13] = active, array #8, subject E site 2

CCCCCCCCCCCCCCCC(=O)N[C@@H](CCCCN)C(=O)N[C@H](C(=O)N[C@H](C(=O)N[C@@H](CCCCN)C(=O)N[C@@H](CO)C(=O)O)[C@@H](C)O)[C@@H](C)O [Pal-KTTKS, palmitoyl-lysine-threonine-threonine-lysine-serine] (Palmitoyl-KTTKS-OH; C-terminus assumed)
penetration enhancement of Pal-KTTKS into epidermis [1]: best penetration enhancement | amount of Pal-KTTKS recovered, Sum 2-10 [2, 3]: 42.02 | amount of Pal-KTTKS recovered, Sum 6-10 [2, 3]: 22.74 | amount of Pal-KTTKS recovered, Sum 2-10 [2, 4]: 83.43 | amount of Pal-KTTKS recovered, Sum 6-10 [2, 4]: 53.81 | amount of Pal-KTTKS recovered, Sum 2-10 [2, 5]: 40.40 | amount of Pal-KTTKS recovered, Sum 6-10 [2, 5]: 17.29 | amount of Pal-KTTKS recovered, Sum 2-10 [2, 6]: 42.67 | amount of Pal-KTTKS recovered, Sum 6-10 [2, 6]: 21.36 | amount of Pal-KTTKS recovered, Sum 2-10 [2, 7]: 36.84 | amount of Pal-KTTKS recovered, Sum 6-10 [2, 7]: 16.95 | amount of Pal-KTTKS recovered, Sum 2-10 [2, 8]: 31.64 | amount of Pal-KTTKS recovered, Sum 6-10 [2, 8]: 19.40 | amount of Pal-KTTKS recovered, Sum 2-10 [2, 9]: 90.87 | amount of Pal-KTTKS recovered, Sum 6-10 [2, 9]: 54.66 | amount of Pal-KTTKS recovered, Sum 2-10 [2, 10]: 18.10 | amount of Pal-KTTKS recovered, Sum 6-10 [2, 10]: 9.26 | amount of Pal-KTTKS recovered, Sum 2-10 [2, 11]: 18.31 | amount of Pal-KTTKS recovered, Sum 6-10 [2, 11]: 8.02 | amount of Pal-KTTKS recovered, Sum 2-10 [2, 12]: 31.17 | amount of Pal-KTTKS recovered, Sum 6-10 [2, 12]: 14.86 | amount of Pal-KTTKS recovered, Sum 2-10 [2, 13]: 26.78 | amount of Pal-KTTKS recovered, Sum 6-10 [2, 13]: 11.84 | Enhancement value Strips 2-10 (active/passive) ([2]; array #8, Avg of the enhancement values of all test sites): 4.00 | Enhancement value Strips 2-10 (active/passive) ([2]; array #8, subject A site 1): 1.34 | Enhancement value Strips 6-10 (active/passive) ([2]; array #8, subject A site 1): 1.33 | Enhancement value Strips 2-10 (active/passive) ([2]; array #8, subject A site 2): 16.52 | Enhancement value Strips 2-10 (active/passive) ([2]; array #8, subject B site 1): 3.39 | Enhancement value Strips 6-10 (active/passive) ([2]; array #8, subject B site 1): 18.16 | Enhancement value Strips 2-10 (active/passive) ([2]; array #8, subject B site 2): 3.47 | Enhancement value Strips 2-10 (active/passive) ([2]; array #8, subject C site 1): 2.23 | Enhancement value Strips 6-10 (active/passive) ([2]; array #8, subject C site 1): 3.03 | Enhancement value Strips 2-10 (active/passive) ([2]; array #8, subject C site 2): 1.32 | Enhancement value Strips 6-10 (active/passive) ([2]; array #8, subject C site 2): 1.22 | Enhancement value Strips 2-10 (active/passive) ([2]; array #8, subject D site 1): 1.72 | Enhancement value Strips 6-10 (active/passive) ([2]; array #8, subject D site 1): 3.63 | Enhancement value Strips 2-10 (active/passive) ([2]; array #8, subject D site 2): 2.35 | Enhancement value Strips 2-10 (active/passive) ([2]; array #8, subject E site 1): 4.86 | Enhancement value Strips 6-10 (active/passive) ([2]; array #8, subject E site 1): 10.70 | Enhancement value Strips 2-10 (active/passive) ([2]; array #8, subject E site 2): 2.75 | Enhancement value Strips 6-10 (active/passive) ([2]; array #8, subject E site 2): 6.73 | amount of Pal-KTTKS recovered, Sum 2-10 ([2]; passive, Avg of all test sites): 20.55 | amount of Pal-KTTKS recovered, Sum 6-10 ([2]; passive, Avg of all test sites): 10.01 | amount of Pal-KTTKS recovered, Sum 2-10 ([2]; passive, subject A site 1): 62.40 | amount of Pal-KTTKS recovered, Sum 6-10 ([2]; passive, subject A site 1): 40.39 | amount of Pal-KTTKS recovered, Sum 2-10 ([2]; passive, subject A site 2): 2.45 | amount of Pal-KTTKS recovered, Sum 6-10 ([2]; passive, subject A site 2): 0.00 | amount of Pal-KTTKS recovered, Sum 2-10 ([2]; passive, subject B site 1): 12.58 | amount of Pal-KTTKS recovered, Sum 6-10 ([2]; passive, subject B site 1): 2.25 | amount of Pal-KTTKS recovered, Sum 2-10 ([2]; passive, subject B site 2): 10.61 | amount of Pal-KTTKS recovered, Sum 6-10 ([2]; passive, subject B site 2): 1.04 | amount of Pal-KTTKS recovered, Sum 2-10 ([2]; passive, subject C site 1): 14.16 | amount of Pal-KTTKS recovered, Sum 6-10 ([2]; passive, subject C site 1): 5.56 | amount of Pal-KTTKS recovered, Sum 2-10 ([2]; passive, subject C site 2): 68.87 | amount of Pal-KTTKS recovered, Sum 6-10 ([2]; passive, subject C site 2): 43.44 | amount of Pal-KTTKS recovered, Sum 2-10 ([2]; passive, subject D site 1): 10.53 | amount of Pal-KTTKS recovered, Sum 6-10 ([2]; passive, subject D site 1): 3.35 | amount of Pal-KTTKS recovered, Sum 2-10 ([2]; passive, subject D site 2): 7.81 | amount of Pal-KTTKS recovered, Sum 6-10 ([2]; passive, subject D site 2): 0.00 | amount of Pal-KTTKS recovered, Sum 2-10 ([2]; passive, subject E site 1): 6.41 | amount of Pal-KTTKS recovered, Sum 6-10 ([2]; passive, subject E site 1): 1.72 | amount of Pal-KTTKS recovered, Sum 2-10 ([2]; passive, subject E site 2): 9.74 | amount of Pal-KTTKS recovered, Sum 6-10 ([2]; passive, subject E site 2): 2.31
